Reference: patent US20200397686A1, “Methods of Reducing Burning or Stinging Sensation Attributed to Certain Compositions” (Monell Chemical Senses Center, priority 2018, published 2020)

Tested on: burning sensation in the mouth produced by use of LISTERINE mouthwash
Assay: Reduction of perceived burning sensation after rinsing with LISTERINE mouthwash with or without sophorolipid (six subjects)
Format: in vivo, human
Conditions: five of six subjects; treated mouthwash (sophorolipid added) vs control mouthwash with no sophorolipid; rinse held in mouth 10-60 seconds before spitting; self-reported
Experimental: FIG. 1 is a graph that illustrates that a sophorolipid, having an oleic acid fatty acid tail, when added to mouthwash blocks or inhibits the burning sensation taste produced by use of LISTERINE® mouthwash. As discussed in Example 1 below, six subjects were instructed to rinse their mouths with either control (mouthwash with no sophorolipid) or the treated mouthwash (with 10 μM to 100 μM of the sophorolipid). Subjects reported the results as perceived burning sensation. Five of six subjects reported reductions of at least 50% in perceived burn produced by use of the treated mouthwash vs. use of the control.
Six subjects were involved in the study.
A final concentration of […] of the above noted sophorolipid was added to the mouthwash. The mouthwash with no sophorolipid added was the control. The subjects were told to rinse their mouths with either control or the treated mouthwash and hold it in their mouths for 10-60 seconds before spitting. Subjects were told to report the results as perceived burning sensation.
As reported in the graph of FIG. 1, five of six subjects reported reductions of at least 50% in perceived burn produced by use of the […].

sophorolipid
reduction in perceived burn: at least 50%
